According to US20250090865A1, “LESIONAL DOSIMETRY FOR TARGETED RADIOTHERAPY OF CANCER” (Memorial Sloan-Kettering Cancer Center, priority 2021, published 2025):
Where two headings read alike, the source gives them in different places.

Key:
[1] = tested on: individual lesions of metastatic thyroid cancer; test: ^124I PET/CT imaging of lesion radioiodine uptake; assay type: in vivo, human; details: 48 h after oral ^124I
Source text: Population. The present study includes consecutive 21 patients studied under two different RB-approved protocols who underwent imaging. Patients who were considered candidates for RAI treatment of DTC were enrolled. All patients had histologically confirmed, metastatic thyroid cancer.
Dosimetry and estimation of average lesion uptake. […] (FIG. 9).

[2] = tested on: individual lesions of metastatic thyroid cancer
Source text: Predicting AUC based on a single time point. One goal of this study was to use a single time point to predict the overall area under the radioiodine lesion activity retention curve to estimate the radiation-absorbed dose to lesions without the need for costly additional PET/CT imaging to fully characterize the kinetic behavior. […] For this estimation, the unit is the lesion, and a generalized estimating equation approach is used to estimate the parameters (intercept, slope, and robust variance matrix) accounting for the correlation between lesions in the same patient. Log-transformed values of the uptake and doses are used to ensure the data are normally distributed.
Second, using the estimations for R and the covariance matrix, a prediction interval (PI) is calculated. A PI differs from a confidence interval, as it aims to predict with 95% confidence where future measurements will fall. In our case, if we observed the same value of SUV at 48 h for 100 new lesions, the PI is the range in which 95 of those lesions' AUCs will be found. As difficulties arose when analytically constructing the PI, simulated prediction was used to calculate PIs following the steps detailed in Gelman and Hill, Data Analysis Using Regression and Multilevel/Hierarchical Models (1st Edition, 2007) and summarized in Appendix A.
To validate the accuracy of the prediction, a leave-one-patient-out cross-validation approach was used. For each patient i (i=1, . . . , n), the linear regression parameters are re-estimated using n−1 patients (excluding i), and PIs are calculated for each lesion in patient i based on their measured predictor values.
For those lesions, the actual observed AUC is then compared to the PI. When using 95% PI, it is expected that 95% of the observed values will fall into the corresponding PIs; i.e., 5% will be outside the prediction. In addition, for each left-out patient, an error of prediction is calculated corresponding to the squared difference between the predicted and true AUC values for each lesion. This squared error is average over all the lesions of all the patients to obtain a cross-validated error.
(§1) The target radiation dose of 2000 cGy was chosen because doses above this level are often used as the threshold for patients to receive further radioiodine treatment. Based on the PI now available for the AUC, a simple calculation of the relationship between ^124I and ^131I uptake can yield a PI for the dose [dlow−dhigh]. […] Thus, the higher boundary (dhigh) corresponds to the activity to treat 97.5% of the lesions with the given uptake. By varying this boundary, it is possible to select an activity that will target 95%, 90%, or fewer of the lesions.

[3] = tested on: individual lesions of metastatic thyroid cancer; remark: listed apart in the source
Method: Dosimetry and estimation of average lesion uptake. A workflow was established for four-time point measurement of individual lesion radioiodine kinetics to generate area under the curve (AUC) estimation for accurate determination of the radiation dose in Gray (Gy) to individual lesions in patients undergoing RAI therapy for DTC. Positron emission tomography (PET/CT) imaging was performed after oral administration of 222 MBq (6.0 mCi) of ^124I—NaI (3D Imaging, Waco, TX). Whole-body imaging was performed at 4, 24, 48, and 96 hours after oral administration of the radioactivity (FIG. 4). Regions of interest were obtained over all visible lesions >0.5 cm within the body and multiple parameters were obtained for later analysis. The following parameters were captured in a database for each patient and each lesion: size in three dimensions (cm); standardized uptake value (SUV), maximum and average; lean body weight; and activity concentration in microcurie/gram. (FIG. 9). For these patients, the best clearance fitting curve was estimated using a dual exponential equation model comprising lesion uptake and clearance. Prior to integration, clearance fitting was adjusted to replace the decay constant of ^124I with ^131I, the therapy isotope of interest, and then integrated to obtain the AUC. This AUC was multiplied by the equilibrium dose constant for the non-penetrating P-emissions of ^131I, yielding the lesion-absorbed dose in Gy.
Range of ^131I activity to treat a chosen efficacy rate for RAI in mDTC patients. A multi-disciplinary team of nuclear medicine specialists, endocrinologists, medical oncologists, and medical physicists met weekly to make treatment decisions based on the PET data generated, including data from the methods disclosed herein.
as §1
The full parameter data set consists of: anatomical descriptor, mean size (cm), lesion dose per projected unit millicurie of administered ^131I activity with and without partial volume correction (5), half-life based on a linear slop between day 3 and 5 as well as based on exponential curve fitting, area under the curve based on an integrated curve fit, estimated activity per gram at 48 and 72 hours post-administration, SUV and SUL (based on lean body mass) at 24, 48, and 72 hours post-administration, the administered activity to deliver 2,000 cGy, the radiation dose estimate resulting from the actual therapeutic amount administered to the patient, and the maximum projected dose that could have been achieved had the maximum tolerated activity been administered. This dataset was used as the input to derive a statistical model to predict the radiation dose to lesions.

[4] = median of 21 patients
Method: Maximum Tolerated Activity (MTA).
To perform these studies, serial blood samples and total body measurements were conducted to determine β- and photon radiation dose contributions to blood (a proxy for the dose-limiting bone marrow) from a pre-therapy tracer administration of either ^124I or ^131I.

[5] = tested on: metastatic thyroid cancer; details: patients with any lesion with predicted dose >2000 cGy
Source text: Prediction of activity to deliver 2000 cGy. An operational definition in the methods disclosed herein is that a patient with any lesion with a predicted dose of >2000 cGy would likely respond to treatment. […] A total of 208 lesions are included in the analysis. The prediction is limited for lesions with an SUV >1, as no treatment is planned for lesions with no uptake. Lesions that received no treatment (n=39) were included in the analysis, as prediction is still feasible. […] In (SUV_48_)___.

## [124I-].[Na+] [^124I, ^124I—NaI]
[1]; patient 1, 13 lesions
  SUV(48 h): 8.03
[1]; patient 2, 18 lesions
  SUV(48 h): 80.1
[1]; patient 3, 14 lesions
  SUV(48 h): 3.25
[1]; patient 4, 12 lesions
  SUV(48 h): 7.4
[1]; patient 5, 10 lesions
  SUV(48 h): 1.85
[1]; patient 6, 16 lesions
  SUV(48 h): 27.8
[1]; patient 7, 23 lesions
  SUV(48 h): 35
[1]; patient 8, 6 lesions
  SUV(48 h): 1.73
[1]; patient 9, 8 lesions
  SUV(48 h): 4.35
[1]; patient 10, 4 lesions
  SUV(48 h): 26.2
[1]; patient 11, 11 lesions
  SUV(48 h): 11.30
[1]; patient 12, 3 lesions
  SUV(48 h): 0.7
[1]; patient 13, 13 lesions
  SUV(48 h): 1.30
[1]; patient 14, 5 lesions
  SUV(48 h): 0.90
[1]; patient 15, 17 lesions
  SUV(48 h): 385.3
[1]; patient 16, 6 lesions
  SUV(48 h): 8.30
[1]; patient 17, 6 lesions
  SUV(48 h): 0.80
[1]; patient 18, 12 lesions
  SUV(48 h): 25.1
[1]; patient 19, 17 lesions
  SUV(48 h): 204.6
[1]; patient 20, 13 lesions
  SUV(48 h): 2.30
[1]; patient 21, 10 lesions
  SUV(48 h): 10.8

## [131I-].[Na+] [^131I, Iodine-131]
[2]; SUV at 48 h 2
  AUC 95% PI: 1.5-9.1 uCi · hr/g per mCi
  AUC Mean Estimate: 4.0 uCi · hr/g per mCi
[2]; SUV at 48 h 4
  AUC 95% PI: 3.3-20.3 uCi · hr/g per mCi
  AUC Mean Estimate: 8.1 uCi · hr/g per mCi
[2]; SUV at 48 h 6
  AUC 95% PI: 4.8-29.2 uCi · hr/g per mCi
  AUC Mean Estimate: 12.1 uCi · hr/g per mCi
[2]; SUV at 48 h 8
  AUC 95% PI: 6.4-38.8 uCi · hr/g per mCi
  AUC Mean Estimate: 16.1 uCi · hr/g per mCi
[2]; SUV at 48 h 10
  AUC 95% PI: 8.6-48.4 uCi · hr/g per mCi
  AUC Mean Estimate: 20.2 uCi · hr/g per mCi
[2]; SUV at 48 h 15
  AUC 95% PI: 11.9-71.0 uCi · hr/g per mCi
  AUC Mean Estimate: 30.3 uCi · hr/g per mCi
[2]; SUV at 48 h 20
  AUC 95% PI: 16.1-97.1 uCi · hr/g per mCi
  AUC Mean Estimate: 40.4 uCi · hr/g per mCi
[2]; SUV at 48 h 30
  AUC 95% PI: 24.3-147.4 uCi · hr/g per mCi
  AUC Mean Estimate: 60.6 uCi · hr/g per mCi
[2]; SUV at 48 h 50
  AUC 95% PI: 40.8-252.9 uCi · hr/g per mCi
  AUC Mean Estimate: 101.2 uCi · hr/g per mCi
[2]; SUV at 48 h 100
  AUC 95% PI: 82.3-479.6 uCi · hr/g per mCi
  AUC Mean Estimate: 202.6 uCi · hr/g per mCi
[2]; SUV at 48 h 200
  AUC 95% PI: 164.2-951.2 uCi · hr/g per mCi
  AUC Mean Estimate: 405.8 uCi · hr/g per mCi
[2]; SUV at 48 h 300
  AUC 95% PI: 257.8-1476.2 uCi · hr/g per mCi
  AUC Mean Estimate: 609.2 uCi · hr/g per mCi
[3]; patient 1, 13 lesions
  Teff: 8.02 days
[3]; patient 2, 18 lesions
  Teff: 4.28 days
[3]; patient 3, 14 lesions
  Teff: 0.45 days
[3]; patient 4, 12 lesions
  Teff: 3.16 days
[3]; patient 5, 10 lesions
  Teff: 1.48 days
[3]; patient 6, 16 lesions
  Teff: 1.59 days
[3]; patient 7, 23 lesions
  Teff: 2.48 days
[3]; patient 8, 6 lesions
  Teff: 4.41 days
[3]; patient 9, 8 lesions
  Teff: 3.03 days
[3]; patient 10, 4 lesions
  Teff: 1.26 days
[3]; patient 11, 11 lesions
  Teff: 2.98 days
[3]; patient 12, 3 lesions
  Teff: 3.8 days
[3]; patient 13, 13 lesions
  Teff: 1.55 days
[3]; patient 14, 5 lesions
  Teff: 1.74 days
[3]; patient 15, 17 lesions
  Teff: 3.79 days
[3]; patient 16, 6 lesions
  Teff: 4.77 days
[3]; patient 17, 6 lesions
  Teff: 8.04 days
[3]; patient 18, 12 lesions
  Teff: 1.69 days
[3]; patient 19, 17 lesions
  Teff: 1.55 days
[3]; patient 20, 13 lesions
  Teff: 1.74 days
[3]; patient 21, 10 lesions
  Teff: 4.63 days
[4]
  Maximum Tolerated Activity (mCi): 426 mCi
[5]
  probability of complete reduction: 100%
  probability of durable partial RECIST response: 75%
